Earlier results as cited in patent EP3263095A1, “A PHARMACEUTICAL FORMULATION OF OLAPARIB” (Zentiva K.S., priority 2016, dated 2018).

Settings: EMA/CHMP/789139/2014

O=C(c1cc(Cc2n[nH]c(=O)c3ccccc23)ccc1F)N1CCN(C(=O)C2CC2)CC1 [olaparib, 4-[(3-[(4-cyclopropylcarbonyl)piperazin-4-yl]carbonyl)-4-fluorophenyl]methyl(2H)-phtalazin-1-one]
Group of the Biopharmaceutical Classification System (low solubility and bioavailability): Group 4
